Laboratory results reported in ChEMBL document CHEMBL5465560, “Selectivity Literature for EUbOPEN Chemogenomic Library” (2024).
pIC50: −log10 of the molar value.

Assays:
[1] = target: Protein-tyrosine kinase 6 (Homo sapiens, UniProt Q13882); assay: Selectivity interaction (KinaseProfiler screening (Millipore, enzymatic assay)) EUB0000601a PTK6
[2] = target: Receptor tyrosine-protein kinase erbB-4 (Homo sapiens, UniProt Q15303); assay: Selectivity interaction (KinomeScan (DiscoverX)) EUB0001079a ERBB4; details: at 1 µM
[3] = target: Mitogen-activated protein kinase kinase kinase 4 (Homo sapiens) (UniProt Q9Y6R4); assay: Selectivity interaction (KinomeScan (DiscoverX)) EUB0001079a MAP3K4; details: at 1 µM
[4] = target: T1, Mitogen-activated protein kinase kinase kinase 6 (Homo sapiens) (UniProt O95382); assay: Selectivity interaction (KinomeScan (DiscoverX)) EUB0000607a MAP3K6; details: at 10 µM
T1 sequence (whole entry): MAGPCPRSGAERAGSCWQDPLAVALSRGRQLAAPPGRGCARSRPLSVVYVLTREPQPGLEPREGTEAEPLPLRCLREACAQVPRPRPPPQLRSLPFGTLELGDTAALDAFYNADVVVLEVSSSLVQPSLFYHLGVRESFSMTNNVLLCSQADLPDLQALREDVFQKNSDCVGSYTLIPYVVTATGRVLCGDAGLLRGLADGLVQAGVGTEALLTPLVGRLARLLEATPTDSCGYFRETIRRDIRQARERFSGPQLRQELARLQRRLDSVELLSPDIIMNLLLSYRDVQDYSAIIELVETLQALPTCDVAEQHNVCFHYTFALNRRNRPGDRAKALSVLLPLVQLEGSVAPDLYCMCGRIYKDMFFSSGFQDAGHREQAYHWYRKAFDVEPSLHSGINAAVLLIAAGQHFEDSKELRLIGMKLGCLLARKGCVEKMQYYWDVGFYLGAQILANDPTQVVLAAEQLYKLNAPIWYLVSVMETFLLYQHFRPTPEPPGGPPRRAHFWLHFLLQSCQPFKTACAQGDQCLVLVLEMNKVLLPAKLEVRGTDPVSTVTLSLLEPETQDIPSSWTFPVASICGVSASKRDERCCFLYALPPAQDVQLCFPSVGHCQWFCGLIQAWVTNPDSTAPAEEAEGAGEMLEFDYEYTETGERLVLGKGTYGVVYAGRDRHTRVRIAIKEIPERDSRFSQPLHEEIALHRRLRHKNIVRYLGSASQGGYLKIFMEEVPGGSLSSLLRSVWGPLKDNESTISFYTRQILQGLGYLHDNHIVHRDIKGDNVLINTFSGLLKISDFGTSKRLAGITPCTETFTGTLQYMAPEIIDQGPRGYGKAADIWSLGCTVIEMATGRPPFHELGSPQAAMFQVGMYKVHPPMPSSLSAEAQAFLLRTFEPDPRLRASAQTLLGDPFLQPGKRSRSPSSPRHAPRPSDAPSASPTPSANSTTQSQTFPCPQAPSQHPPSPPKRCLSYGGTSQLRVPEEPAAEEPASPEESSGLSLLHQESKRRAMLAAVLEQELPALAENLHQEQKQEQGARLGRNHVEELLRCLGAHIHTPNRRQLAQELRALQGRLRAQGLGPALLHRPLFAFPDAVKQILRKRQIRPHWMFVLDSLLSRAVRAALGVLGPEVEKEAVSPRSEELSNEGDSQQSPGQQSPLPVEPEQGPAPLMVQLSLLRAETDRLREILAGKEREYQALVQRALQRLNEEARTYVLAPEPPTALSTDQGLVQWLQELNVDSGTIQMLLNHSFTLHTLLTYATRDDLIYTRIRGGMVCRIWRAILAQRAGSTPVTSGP

[5] = target: Homeodomain-interacting protein kinase 1 (Homo sapiens, UniProt Q86Z02); assay: Selectivity interaction (Upstate Kinase Profiler service (Millipore)) EUB0000056c HIPK1; details: at 1 µM
Homeodomain-interacting protein kinase 1, sequence (Q86Z02 whole entry, looked up): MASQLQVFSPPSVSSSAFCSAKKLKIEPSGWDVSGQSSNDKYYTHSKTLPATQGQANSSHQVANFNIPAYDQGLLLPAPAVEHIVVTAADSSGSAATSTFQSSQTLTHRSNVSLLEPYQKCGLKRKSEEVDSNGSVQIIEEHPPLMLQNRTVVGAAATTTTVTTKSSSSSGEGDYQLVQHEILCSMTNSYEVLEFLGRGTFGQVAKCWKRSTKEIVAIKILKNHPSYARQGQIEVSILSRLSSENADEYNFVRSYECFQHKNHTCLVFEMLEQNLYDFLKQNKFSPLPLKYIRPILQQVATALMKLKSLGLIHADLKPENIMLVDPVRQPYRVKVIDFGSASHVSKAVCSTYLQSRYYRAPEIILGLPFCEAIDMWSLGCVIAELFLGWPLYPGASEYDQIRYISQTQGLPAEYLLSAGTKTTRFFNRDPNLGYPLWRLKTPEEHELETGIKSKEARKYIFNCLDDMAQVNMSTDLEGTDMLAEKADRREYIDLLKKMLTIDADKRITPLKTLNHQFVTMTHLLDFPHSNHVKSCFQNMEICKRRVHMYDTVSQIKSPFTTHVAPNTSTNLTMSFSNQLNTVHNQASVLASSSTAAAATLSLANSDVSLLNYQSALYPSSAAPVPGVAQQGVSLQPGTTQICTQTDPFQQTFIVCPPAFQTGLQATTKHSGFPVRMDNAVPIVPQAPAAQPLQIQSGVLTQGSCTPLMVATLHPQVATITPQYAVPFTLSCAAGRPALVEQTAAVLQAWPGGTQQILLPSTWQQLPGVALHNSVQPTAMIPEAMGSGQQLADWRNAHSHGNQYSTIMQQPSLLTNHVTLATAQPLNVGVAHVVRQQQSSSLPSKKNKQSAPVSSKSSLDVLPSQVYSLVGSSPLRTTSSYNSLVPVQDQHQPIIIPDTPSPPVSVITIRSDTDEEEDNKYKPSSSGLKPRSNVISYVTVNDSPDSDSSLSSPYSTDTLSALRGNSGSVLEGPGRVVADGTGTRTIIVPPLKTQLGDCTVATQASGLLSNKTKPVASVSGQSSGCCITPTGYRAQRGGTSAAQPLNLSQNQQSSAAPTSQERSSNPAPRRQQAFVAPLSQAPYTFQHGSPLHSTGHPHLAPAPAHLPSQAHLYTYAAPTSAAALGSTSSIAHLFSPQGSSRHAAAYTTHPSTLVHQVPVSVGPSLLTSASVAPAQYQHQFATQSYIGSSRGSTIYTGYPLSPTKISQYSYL

[6] = system: Tyrosine-protein kinase ABL1 (Homo sapiens), P00519 [Q252H]; details: at 10 µM
[7] = system: Epidermal growth factor receptor (Homo sapiens), P00533 [UNDEFINED MUTATION]; details: at 10 µM
[8] = target: Homeodomain-interacting protein kinase 2 (Homo sapiens, UniProt Q9H2X6); details: at 10 µM
[9] = target: Serine/threonine-protein kinase SMG1 (Homo sapiens) (UniProt Q96Q15); assay: Selectivity interaction (ActivX KiNativ screen (kinase selectivity in THP-1 cell lysates)) EUB0000639a SMG1; assay type: subcellular; details: lysate, at 0.2 µM
Serine/threonine-protein kinase SMG1 (Homo sapiens), sequence (Q96Q15 whole entry): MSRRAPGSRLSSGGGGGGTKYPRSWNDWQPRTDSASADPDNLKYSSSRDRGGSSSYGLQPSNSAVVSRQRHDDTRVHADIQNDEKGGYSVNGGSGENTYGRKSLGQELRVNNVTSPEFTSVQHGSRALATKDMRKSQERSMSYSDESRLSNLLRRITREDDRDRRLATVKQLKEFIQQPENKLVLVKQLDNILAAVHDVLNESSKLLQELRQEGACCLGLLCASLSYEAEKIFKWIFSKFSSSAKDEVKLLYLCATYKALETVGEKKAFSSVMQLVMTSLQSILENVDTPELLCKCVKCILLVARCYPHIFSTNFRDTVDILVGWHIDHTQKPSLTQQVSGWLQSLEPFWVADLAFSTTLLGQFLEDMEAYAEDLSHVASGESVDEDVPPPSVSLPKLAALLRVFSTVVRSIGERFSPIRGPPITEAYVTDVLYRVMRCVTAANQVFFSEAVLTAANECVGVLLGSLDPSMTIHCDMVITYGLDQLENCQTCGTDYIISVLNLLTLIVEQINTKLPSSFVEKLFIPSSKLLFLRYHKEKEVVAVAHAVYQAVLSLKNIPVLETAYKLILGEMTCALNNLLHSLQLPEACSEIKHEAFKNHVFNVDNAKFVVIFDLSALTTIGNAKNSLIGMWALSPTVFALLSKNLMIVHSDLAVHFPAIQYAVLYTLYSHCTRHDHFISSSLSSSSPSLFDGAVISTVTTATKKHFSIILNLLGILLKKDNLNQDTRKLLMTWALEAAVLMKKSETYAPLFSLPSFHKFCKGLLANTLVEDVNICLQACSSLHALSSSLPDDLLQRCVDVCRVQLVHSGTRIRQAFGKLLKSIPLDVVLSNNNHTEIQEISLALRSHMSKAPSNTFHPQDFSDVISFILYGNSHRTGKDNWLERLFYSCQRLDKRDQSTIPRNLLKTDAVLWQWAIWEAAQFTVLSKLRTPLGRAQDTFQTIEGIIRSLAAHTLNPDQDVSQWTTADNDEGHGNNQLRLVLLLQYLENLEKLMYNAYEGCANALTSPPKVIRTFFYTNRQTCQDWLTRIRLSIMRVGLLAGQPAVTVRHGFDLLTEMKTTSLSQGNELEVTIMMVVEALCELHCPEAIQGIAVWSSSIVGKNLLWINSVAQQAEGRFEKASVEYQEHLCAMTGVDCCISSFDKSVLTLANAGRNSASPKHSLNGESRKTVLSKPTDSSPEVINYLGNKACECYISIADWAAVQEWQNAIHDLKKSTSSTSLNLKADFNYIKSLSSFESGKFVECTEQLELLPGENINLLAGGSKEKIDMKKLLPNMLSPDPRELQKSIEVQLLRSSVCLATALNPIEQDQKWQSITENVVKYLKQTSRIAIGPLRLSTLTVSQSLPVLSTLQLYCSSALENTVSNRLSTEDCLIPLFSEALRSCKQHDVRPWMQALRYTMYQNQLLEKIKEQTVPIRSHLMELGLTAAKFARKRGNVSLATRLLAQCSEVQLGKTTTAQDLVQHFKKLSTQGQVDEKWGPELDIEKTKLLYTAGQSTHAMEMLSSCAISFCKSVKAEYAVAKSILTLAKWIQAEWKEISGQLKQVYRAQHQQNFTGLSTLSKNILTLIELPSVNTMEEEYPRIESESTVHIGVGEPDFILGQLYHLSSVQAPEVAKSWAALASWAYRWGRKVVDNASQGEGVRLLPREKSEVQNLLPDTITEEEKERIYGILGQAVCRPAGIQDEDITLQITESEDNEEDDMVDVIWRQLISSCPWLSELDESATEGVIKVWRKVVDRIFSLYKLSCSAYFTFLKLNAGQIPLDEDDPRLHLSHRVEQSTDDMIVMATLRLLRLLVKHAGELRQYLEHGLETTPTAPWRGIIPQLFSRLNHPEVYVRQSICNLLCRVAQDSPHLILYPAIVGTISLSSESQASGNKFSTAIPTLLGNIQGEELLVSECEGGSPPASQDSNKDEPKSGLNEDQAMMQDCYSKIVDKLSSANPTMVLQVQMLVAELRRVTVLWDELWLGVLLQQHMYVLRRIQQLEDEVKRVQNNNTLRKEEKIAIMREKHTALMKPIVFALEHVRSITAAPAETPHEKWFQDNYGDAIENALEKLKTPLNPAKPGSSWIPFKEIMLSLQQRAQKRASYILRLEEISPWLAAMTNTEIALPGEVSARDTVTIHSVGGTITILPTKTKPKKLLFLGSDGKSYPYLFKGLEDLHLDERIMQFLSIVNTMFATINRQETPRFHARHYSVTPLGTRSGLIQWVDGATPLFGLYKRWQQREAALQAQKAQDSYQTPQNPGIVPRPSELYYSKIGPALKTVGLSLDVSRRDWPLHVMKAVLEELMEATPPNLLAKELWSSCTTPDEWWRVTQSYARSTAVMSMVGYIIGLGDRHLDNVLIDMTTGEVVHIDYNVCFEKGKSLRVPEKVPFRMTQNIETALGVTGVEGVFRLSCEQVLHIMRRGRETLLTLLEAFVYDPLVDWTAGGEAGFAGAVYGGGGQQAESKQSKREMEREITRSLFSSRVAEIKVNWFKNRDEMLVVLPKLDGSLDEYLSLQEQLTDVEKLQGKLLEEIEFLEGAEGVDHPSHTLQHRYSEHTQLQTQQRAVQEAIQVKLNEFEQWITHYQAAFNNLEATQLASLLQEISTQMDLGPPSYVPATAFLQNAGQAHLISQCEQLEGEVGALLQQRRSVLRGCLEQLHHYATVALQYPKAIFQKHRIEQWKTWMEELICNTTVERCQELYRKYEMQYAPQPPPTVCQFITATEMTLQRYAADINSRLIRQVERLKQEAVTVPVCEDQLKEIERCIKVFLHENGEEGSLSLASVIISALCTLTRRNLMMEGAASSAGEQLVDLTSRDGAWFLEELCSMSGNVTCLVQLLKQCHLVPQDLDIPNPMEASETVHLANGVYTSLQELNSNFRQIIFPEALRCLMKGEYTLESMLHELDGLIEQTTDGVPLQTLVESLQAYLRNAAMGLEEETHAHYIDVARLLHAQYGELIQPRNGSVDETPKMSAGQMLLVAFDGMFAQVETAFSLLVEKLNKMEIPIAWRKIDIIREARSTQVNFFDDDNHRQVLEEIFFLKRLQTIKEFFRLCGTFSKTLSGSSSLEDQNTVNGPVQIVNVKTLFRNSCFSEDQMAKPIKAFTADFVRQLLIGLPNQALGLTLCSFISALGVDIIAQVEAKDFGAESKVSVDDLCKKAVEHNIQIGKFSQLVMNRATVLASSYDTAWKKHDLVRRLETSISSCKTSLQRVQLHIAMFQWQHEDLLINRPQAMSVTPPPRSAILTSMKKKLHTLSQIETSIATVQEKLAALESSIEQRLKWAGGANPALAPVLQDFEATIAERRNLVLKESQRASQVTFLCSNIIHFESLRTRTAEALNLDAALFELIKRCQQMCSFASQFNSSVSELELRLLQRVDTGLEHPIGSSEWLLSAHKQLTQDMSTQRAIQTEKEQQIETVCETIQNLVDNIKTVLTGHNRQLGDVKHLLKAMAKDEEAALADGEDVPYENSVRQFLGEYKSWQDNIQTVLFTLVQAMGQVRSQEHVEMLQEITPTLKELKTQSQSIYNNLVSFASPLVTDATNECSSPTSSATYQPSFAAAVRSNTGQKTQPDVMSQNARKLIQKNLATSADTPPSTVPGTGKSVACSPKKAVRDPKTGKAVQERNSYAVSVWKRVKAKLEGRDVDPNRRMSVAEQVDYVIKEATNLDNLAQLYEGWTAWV

[10] = target: TGF-beta receptor type-2 (Homo sapiens) (UniProt P37173); assay: Selectivity interaction (KinomeScan (DiscoverX)) EUB0000092b TGFBR2; details: at 10 µM
[11] = target: Tyrosine-protein kinase Yes (Homo sapiens) (UniProt P07947); assay: Selectivity interaction (KinomeScan (DiscoverX)) EUB0000092b YES1; details: at 10 µM
[12] = target: T2, Rhodopsin kinase GRK1 (Homo sapiens) (UniProt Q15835); assay: Selectivity interaction (LanthaScreen Eu Kinase Binding Assay) EUB0001632a GRK1; details: at 10 µM
T2 sequence (whole entry): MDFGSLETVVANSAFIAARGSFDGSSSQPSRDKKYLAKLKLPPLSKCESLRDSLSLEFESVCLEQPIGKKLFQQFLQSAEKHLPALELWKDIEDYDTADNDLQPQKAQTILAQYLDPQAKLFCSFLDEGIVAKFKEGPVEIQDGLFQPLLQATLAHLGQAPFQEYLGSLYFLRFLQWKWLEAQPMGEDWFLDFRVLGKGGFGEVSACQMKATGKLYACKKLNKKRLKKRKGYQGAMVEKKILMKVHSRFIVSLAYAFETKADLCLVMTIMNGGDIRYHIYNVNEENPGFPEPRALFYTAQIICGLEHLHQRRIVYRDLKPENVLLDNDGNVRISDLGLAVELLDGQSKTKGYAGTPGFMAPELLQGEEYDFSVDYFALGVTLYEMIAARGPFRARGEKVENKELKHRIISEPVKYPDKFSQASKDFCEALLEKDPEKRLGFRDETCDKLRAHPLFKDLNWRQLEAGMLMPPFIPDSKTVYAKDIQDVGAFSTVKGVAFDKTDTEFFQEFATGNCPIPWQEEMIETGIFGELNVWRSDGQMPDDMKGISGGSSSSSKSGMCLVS

## CCc1cc(Nc2nccc(-c3c(-c4ccc(OC)c(C(=O)Nc5c(F)cccc5F)c4)nc4ccccn34)n2)c(OC)cc1N1CCC(N2CCN(S(C)(=O)=O)CC2)CC1
[1]
  pIC50: 6.45

## Nc1cnc(N2CCc3cc(S(=O)(=O)Nc4c(F)cc(Cl)cc4F)cc(N4CCCC4=O)c32)nc1 [TP-020n]
[2]
  % of control: 100%
[3]
  % of control: 85%

## CNC(=O)Nc1ccc(-c2nc(N3CC4CCC(C3)O4)c3cnn(C4CCC5(CC4)OCCO5)c3n2)cc1
[4]
  % of control: 80%

## Cc1ccc(-c2ccc3c(ccc4sc5c(c43)NC[C@@H](C)NC5=O)n2)cn1
[5]
  % of inhibition: 7%

## Cc1cc([C@@H](C)Nc2ccccc2C(=O)O)c2nc(N3CCOCC3)cc(=O)n2c1 [AZD-6482]
[6]
  % of control: 100%
[7]
  % of control: 100%
[8]
  % of control: 79%

## CC[C@@H]1[C@H](F)C(=O)N[C@@H]1COc1nccc2cc(C(N)=O)c(OC)cc12 [ZIMLOVISERTIB]
[9]
  % of inhibition: 0%

## CCC(=O)N1CCN(c2ccc(-n3c(=O)ccc4cnc5ccc(-c6cnc7ccccc7c6)cc5c43)cc2C(F)(F)F)CC1
[10]
  % of control: 77%
[11]
  % of control: 74%

## Cn1cc(-n2cnc3c(NCc4nc5cc(Cl)c(Cl)cc5[nH]4)nc(N4CCOCC4)nc32)cn1
[12]
  % of inhibition: -16.5%
